The assay deals with Genome polyprotein (dengue virus type 2, UniProt P29990). The class given is functional, Thailand/16681/1984.

Bounds are passed on as bounds.

Sequence of Genome polyprotein (P29990 1346-1475 limits assumed): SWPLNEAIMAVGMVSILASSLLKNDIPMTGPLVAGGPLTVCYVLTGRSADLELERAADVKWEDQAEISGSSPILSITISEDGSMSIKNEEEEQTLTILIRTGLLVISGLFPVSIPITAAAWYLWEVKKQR
Sequence of Genome polyprotein (P29990 1476-2093 limits assumed): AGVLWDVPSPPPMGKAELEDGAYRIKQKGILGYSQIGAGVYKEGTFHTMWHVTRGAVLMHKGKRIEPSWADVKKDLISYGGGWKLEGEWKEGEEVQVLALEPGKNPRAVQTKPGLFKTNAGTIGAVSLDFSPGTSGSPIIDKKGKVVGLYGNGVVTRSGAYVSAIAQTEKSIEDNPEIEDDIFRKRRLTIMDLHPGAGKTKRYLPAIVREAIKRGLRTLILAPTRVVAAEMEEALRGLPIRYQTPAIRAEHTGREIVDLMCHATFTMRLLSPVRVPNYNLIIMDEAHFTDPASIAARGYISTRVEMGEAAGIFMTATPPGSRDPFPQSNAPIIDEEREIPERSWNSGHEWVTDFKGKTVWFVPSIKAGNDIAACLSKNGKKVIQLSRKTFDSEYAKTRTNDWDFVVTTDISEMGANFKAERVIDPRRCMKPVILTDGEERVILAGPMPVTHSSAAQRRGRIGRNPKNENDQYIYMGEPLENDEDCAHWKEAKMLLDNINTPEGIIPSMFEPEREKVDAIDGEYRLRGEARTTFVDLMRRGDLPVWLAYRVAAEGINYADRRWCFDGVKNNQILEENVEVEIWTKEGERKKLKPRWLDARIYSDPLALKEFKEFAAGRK

`N#Cc1cccc2c(CN3CCC(c4cscn4)CC3)c[nH]c12` registered a half-inhibitory concentration (IC50) above 99.5 µM.
For `CS(=O)(=O)c1ccc(-c2cccc([C@H](NC(=O)OCc3ccccc3)C(=O)Nc3cccc(CN)c3)c2)cc1`, the IC50 was 40 µM.
In the case of `NCc1ccc(-c2ncc(OCC3CCNCC3)nc2-c2ccc(-c3ccoc3)cc2)cc1`, the IC50 was above 99.5 µM.
With `COC(=O)c1cc(Cl)ccc1NS(=O)(=O)c1ccc(Oc2ccccc2Cl)cc1` the figure was above 99.5 µM; with `CCn1ccnc(-n2cc([C@@H]3NC(=O)NC3=O)c3ccccc32)c1=O`, above 99.5 µM.
For `O=C(O)c1cc(Cl)ccc1S(=O)(=O)N[C@H]1CCN(Cc2ccccc2)C(=O)C1`, the IC50 was above 99.5 µM.
In turn, `O=C(O)c1cc(Cl)c(Cl)cc1NS(=O)(=O)c1ccc(Oc2ccccc2Cl)cc1` returned a concentration for half-maximal inhibition (IC50) of 6.6 µM.
In the case of `NCc1cccc(NC(=O)[C@@H](NS(=O)(=O)CCc2ccccc2)c2ccc(OCc3ccccc3)cc2)c1` it was 72.8 µM.
Compound `O=C(NCC1CC1)[C@H]1CCCC[C@H]1NS(=O)(=O)c1ccc(Oc2ccccc2Cl)cc1` had a half-inhibitory concentration (IC50) above 99.5 µM.
The compound `O=C(O)c1cc(Cl)ccc1NS(=O)(=O)c1ccc(-c2ccccc2Cl)cc1` returned an IC50 of 6.93 µM.
In turn, `O=C(O)c1cc(Cl)ccc1CS(=O)(=O)c1ccc(Oc2ccccc2Cl)cc1` yielded an IC50 above 99.5 µM.
Take `O=C(O)c1cc(Cl)ccc1CNS(=O)(=O)c1ccc(Oc2ccccc2Cl)cc1`: the IC50 was found to be 98.8 µM.
Compound `O=C(Nc1ccc2c(c1)CNC2)c1cccc2c1OCO2` gave an IC50 above 99.5 µM.
`CCn1c(=O)c(N2C[C@]3(CO)C[C@H]2CO3)nc2ccccc21` displayed a half-inhibitory concentration (IC50) above 99.5 µM.
For the compound `O=c1c2ccccc2ncn1CCCn1cnc2ccccc2c1=O`, the half-inhibitory concentration (IC50) was above 99.5 µM.
With `O=C(Nc1ccc2c(c1)CNC2)c1cc(F)cc2[nH]c(-c3cnccc3O)nc12` the figure was 69.7 µM; with `O[C@@H]1CN(Cc2c[nH]c3ccccc23)C[C@H]1c1c[nH]c2ccccc12`, above 99.5 µM; with `O=C(NCc1c[nH]nn1)c1cc(Cl)ccc1NS(=O)(=O)c1ccc(Oc2ccccc2Cl)cc1`, 29.9 µM.
In the case of `C[C@H]1CC[C@H](CS(=O)(=O)N[C@H](C(=O)Nc2cccc(CN)c2)c2ccc(OCc3ccccc3)cc2)CC1` it was 34.2 µM; in that of `O=Cc1ccc(F)c(C(=O)N2CCN(C3=NCCCN3)CC2)c1`, above 99.5 µM; in that of `CCn1cc(-c2ccc(CN(C)C)cc2)nc(N2CC[C@@H](CO)C2)c1=O`, above 99.5 µM.
`Cn1ncc2cc(C(=O)N3CCC(NC(=O)[C@]4(C)CCC[C@H]4O)CC3)cc(O)c21` had a concentration for half-maximal inhibition (IC50) above 99.5 µM.
As for `O=Cc1ccc(N2CCC(C(=O)NCCc3ccccc3[N+](=O)[O-])CC2)cc1`, half-maximal inhibition (IC50) required 93.9 µM. In other words, the double-digit micromolar range.
For `O=C(Nc1ccc2c(c1)CNC2)N1C[C@H](C(F)F)C2(CC2)C1`, the IC50 was above 99.5 µM.
`CCn1ccnc(N2CC[C@H](C#N)C2)c1=O`: the 50% inhibitory concentration (IC50) is above 99.5 µM.
`CC(=O)N[C@H](C(=O)N[C@H]1C(=O)O[C@H]1C)c1ccc(OCc2ccccc2)cc1`: the IC50 is above 99.5 µM.
Consider `O=C(N[C@@H](C(=O)NCc1cccnc1)c1ccc(OCc2ccccc2)cc1)OCc1ccccc1`, for which the IC50 is above 99.5 µM.
In turn, `CC(C)(C)c1ccc2[nH]cc(CN3CCC(c4cscn4)CC3)c2c1` yielded a half-maximal inhibitory concentration (IC50) above 99.5 µM.
In turn, `CCc1ccc(S(=O)(=O)N[C@@H](C(=O)Nc2cccc(CN)c2)c2ccc(OCc3ccccc3)cc2)cc1` had an IC50 of 92 µM.
With `C[C@H]1COCCN1C(=O)c1cc(Cl)ccc1NS(=O)(=O)c1ccc(Oc2ccccc2Cl)cc1` the figure was 95.6 µM; with `NCc1cccc(NC(=O)C[C@@H](NC(=O)OCc2ccccc2)c2ccc3c(c2)OCO3)c1`, above 99.5 µM; with `O=S(=O)(CCOc1ccccc1)c1nccs1`, above 99.5 µM.
In the case of `c1cncc(N2CCCN(Cc3c[nH]c4ccccc34)CC2)c1` it was above 99.5 µM; in that of `C[C@H]1CNC[C@H](C(=O)Nc2cccc(CN)c2)C1`, above 99.5 µM.
On to `O=c1[nH]c2cccc(N3CCN(Cc4c[nH]c5ccccc45)CC3)c2[nH]1`, for which the half-inhibitory concentration (IC50) was above 99.5 µM.
Compound `c1ccc2c(CNCc3ccc(-c4cscn4)cc3)c[nH]c2c1` yielded a concentration for half-maximal inhibition (IC50) above 99.5 µM.

(Values after ChEMBL document CHEMBL5604063, “ASAP - DENV-2 NS2B-NS3 protease fluorescence dose response” (2024).)
